According to publication PMC2990756, “Quantitative High-Throughput Screening Identifies 8-Hydroxyquinolines as Cell-Active Histone Demethylase Inhibitors” (PLoS ONE, 2010):
Like-named read-outs stand apart in the source and are kept apart here.

How the values were obtained:
Type in all cases: biochemical
[1] = molecular target: T1, formaldehyde dehydrogenase (FDH) (Pseudomonas putida, UniProt P46154); experiment: FDH coupling enzyme counterscreen; conditions: Table S1, FDH counterscreen; for IC50: unit not in table, from Figure 2, read-out: qHTS Data: jmjd2e fdh IC50
T1 construct: purchased Sigma-Aldrich
T1 sequence (P46154 whole entry): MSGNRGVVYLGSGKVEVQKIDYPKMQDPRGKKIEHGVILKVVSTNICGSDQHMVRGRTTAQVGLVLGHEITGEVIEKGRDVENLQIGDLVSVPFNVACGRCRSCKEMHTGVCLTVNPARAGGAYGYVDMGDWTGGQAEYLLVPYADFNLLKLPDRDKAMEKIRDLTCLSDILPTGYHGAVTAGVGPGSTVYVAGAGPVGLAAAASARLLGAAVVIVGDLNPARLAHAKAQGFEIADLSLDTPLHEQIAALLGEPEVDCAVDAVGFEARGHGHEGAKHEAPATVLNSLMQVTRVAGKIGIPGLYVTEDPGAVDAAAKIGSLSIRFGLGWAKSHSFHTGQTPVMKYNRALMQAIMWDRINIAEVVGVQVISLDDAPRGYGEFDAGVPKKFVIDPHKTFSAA
Description: Dimethylsulfoxide certified ACS grade (DMSO) was from Fisher, Inc. HEPES buffer was obtained from Gibco. […] Black solid-bottom 1,536-well assay plates were from Greiner Bio-One (Monroe, NC).

JMJD2E (KDM4E) = molecular target: T2, JMJD2E (KDM4E) (Homo sapiens, UniProt B2RXH2); experiment: qHTS fluorescence FDH-coupled JMJD2E demethylase assay
T2 construct: The catalytic domain of human JMJD2E (residues 1–337); His6 (N); made in house; host or cells: E. coli
T2 sequence (B2RXH2 1-337): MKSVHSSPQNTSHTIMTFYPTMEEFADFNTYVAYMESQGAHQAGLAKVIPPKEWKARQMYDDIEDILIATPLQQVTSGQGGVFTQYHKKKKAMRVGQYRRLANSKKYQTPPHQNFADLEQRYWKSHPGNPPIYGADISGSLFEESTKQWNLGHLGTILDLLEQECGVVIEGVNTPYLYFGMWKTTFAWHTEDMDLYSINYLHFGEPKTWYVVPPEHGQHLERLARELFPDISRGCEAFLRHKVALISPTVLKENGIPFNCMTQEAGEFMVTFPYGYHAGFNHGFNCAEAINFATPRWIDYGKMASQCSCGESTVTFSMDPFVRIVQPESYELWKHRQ
Description: The oxidation of formaldehyde is coupled to the reduction of NAD^+ to NADH, which is monitored by fluorescence spectroscopy. […] To this end, initial screening hits were filtered by a combination of cheminformatics (to exclude low-confidence inhibitors and autofluorescent false positives), counterscreening against the coupled-assay component formaldehyde dehydrogenase (FDH), and orthogonal direct detection of inhibition of demethylation by mass spectrometry ( Figure 1 ).
Reactions were initiated with 1 µL addition of peptide substrate solution containing final concentrations of 10 µM FAS, 50 µM 2OG, 0.25 U/mL FDH, 0.25 mM NAD^+, and 50 µM peptide substrate (ARK(me3)STGGK). A ViewLux imager (PerkinElmer, Waltham, MA) was used to measure NADH fluorescence (λex 340 nm, λem 450 nm) immediately after substrate addition and following 30 min incubation at room temperature. To record any systematic drifts in assay behavior (signal window and noise), assay plates containing no library compounds but only DMSO as a vehicle control were tested periodically (every ∼60 plates) throughout the screen.
Data were normalized to the basal response (0% activity) in the absence of enzyme and the maximal response (100% activity) in the absence of compound. Using the Hill equation, dose-response curves and IC50 values were automatically generated for each compound tested with software developed internally (www.ncgc.nih.gov/pub/openhts/curvefit/). […] The initial well fluorescence (first kinetic read) associated with each sample was stored in a database and used in the cheminformatics analysis to identify autofluorescent compounds interfering with the assay signal.

JMJD2E = molecular target: T3, JMJD2E (Homo sapiens, UniProt B2RXH2); experiment: JMJD2E FDH-coupled assay under low and high iron conditions (iron chelation profile); set-up: The catalytic domain of human JMJD2E (residues 1–337); His6 (N); made in house; host or cells: E. coli; conditions: Table S1; for IC50: unit not in table, from Figure 2
T3 sequence (B2RXH2 1-337): T2 sequence (B2RXH2 1-337)
Protocol: The prioritized compounds were also evaluated in the screening assay using two different ferrous ion concentrations (termed high iron and low iron, respectively), in order to assess their propensity for iron chelation.
The ratio of IC50 values under high iron to low iron was calculated for each compound.

[2] = Table S1, unit not in table, from Figure 2, read-out: qHTS Data: jmjd2e IC50
[3] = low iron 2.5 µM FAS, read-out: qHTS Data: jmjd2e fas2.5um IC50
[4] = high iron, head says 20 µM FAS, read-out: qHTS Data: jmjd2e fas20um IC50

| SMILES | qHTS Data: jmjd2e fdh CurveClass [1] | IC50 [1] [µM] | IC50 (JMJD2E (KDM4E); [2]) [µM] | qHTS Data: jmjd2e fas20um CurveClass (JMJD2E; high iron) | IC50 (JMJD2E; [3]) [µM] | IC50 (JMJD2E; [4]) [µM] | IC50 (JMJD2E (KDM4E); Figure 3, substituted 8-hydroxyquinolines against JMJD2E, read-out: IC50 /μM (qHTS IC50, FDH-coupled assay)) [µM] |
| --- | --- | --- | --- | --- | --- | --- | --- |
| CN(N=O)c1ccc(O)c(O)c1 [compound 50106719] | Poor quality curve | 31.6 | 10 | Inactive | 7.94 |  |  |
| C[C@@H]1Cc2c(O)c(O)cc(O)c2C(=O)O1 [compound 26657786] | Inactive |  | 2 | Inactive | 3.55 |  |  |
| O=Cc1ccc(O)c(O)c1 [compound 8139931] | Inactive |  | 4.47 | Inactive | 3.55 |  |  |
| Oc1cc2c(cc1O)C1c3ccc(O)c(O)c3OCC1(O)C2 (stereo not shown) [compound 26749470] | Inactive |  | 0.71 | Poor quality curve | 1.58 | 14.1 |  |
| Cc1ccc(O)c(N=NC2=C(O)CC(C)(C)CC2=O)c1 [compound 22414549] | Inactive |  | 0.56 | Inactive | 5.62 |  |  |
| O=C1C=CC(=O)c2c(O)cccc21 [compound 26749198] | Inactive |  | 7.08 |  | 5.01 | 14.1 |  |
| O=C(CSc1ncn[nH]1)CSc1ncn[nH]1 [compound 24783149] |  | 1 | 3.55 | Inactive | 6.31 |  |  |
| O=c1cnnc(N/N=C/c2ccccn2)[nH]1 [compound 26726276] | Inactive |  | 3.55 | Inactive | 6.31 |  |  |
| O=c1c(O)c(Br)ccc2c(Br)c(O)c(O)c(O)c12 [compound 50110019] | Poor quality curve | 28.2 | 7.08 | Inconclusive | 5.01 |  |  |
| O=C1CC(Sc2ncn[nH]2)C(=O)N1c1ccccc1 (stereo not shown) [compound 14730480] |  | 0.32 | 2.24 | Inactive | 2.51 |  |  |
| CN(C)[C@H]1C(=O)C(C(=O)NCN[C@@H](CCCCN)C(=O)O)=C(O)[C@]2(O)C(=O)C3=C(O)c4c(O)cccc4[C@@](C)(O)[C@H]3C[C@@H]12 [compound 11112463] | Inactive |  | 8.91 |  | 14.1 | 15.8 |  |
| COc1cc(/C=N/Nc2nncn2N)ccc1OCc1c(C)no[n+]1[O-] [compound 26657989] | Inactive |  | 0.5 | Inactive | 4.47 |  |  |
| C=C1c2cccc(O)c2C(O)=C2C(=O)[C@]3(O)C(O)=C(C(N)=O)C(=O)C(N(C)C)C3C(O)C12.Cl (stereo partly shown) [compound 26748477] | Inactive |  | 8.91 | Poor quality curve | 12.6 | 2.51 |  |
| O=Cc1ccc(O)c2ncccc12 [compound 26664581] | Inactive |  | 3.16 | Poor quality curve | 7.08 | 56.2 | 3.2 |
| N#C/C(=C\c1cc(O)c(O)c(O)c1)C(N)=O [compound 26725225] | Poor quality curve | 39.8 | 1 |  | 2.24 | 8.91 |  |
| O=C(OCC1OC(OC(=O)c2cc(O)c(O)c(OC(=O)c3cc(O)c(O)c(O)c3)c2)[C@@H](OC(=O)c2cc(O)c(O)c(OC(=O)c3cc(O)c(O)c(O)c3)c2)C(OC(=O)c2cc(O)c(O)c(OC(=O)c3cc(O)c(O)c(O)c3)c2)C1OC(=O)c1cc(O)c(O)c(OC(=O)c2cc(O)c(O)c(O)c2)c1)c1cc(O)c(O)c(OC(=O)c2cc(O)c(O)c(O)c2)c1 (stereo partly shown) [compound 26748902] |  | 7.94 | 0.28 |  | 0.16 | 15.8 |  |
| C=CCc1c(C)nc(C)nc1N/N=C/c1ccccc1O [compound 14741635] | Inactive |  | 3.16 | Inactive | 3.16 |  |  |
| N[C@H](Cc1ccc(O)c(O)c1)C(=O)O [compound 50106235] | Inactive |  | 17.8 |  | 12.6 | 12.6 |  |
